Legend:
Test in all cases: KINOMEscan competition binding
Conditions in all cases: compound 10.0 µM
MAP3K2 (human) = MAP3K2 (human) (UniProt Q9Y2U5)
PRKCH (human) = PRKCH (human) (UniProt P24723)
MAPK15 (human) = MAPK15 (human) (UniProt Q8TD08)
OXSR1 (human) = OXSR1 (human) (UniProt O95747)
PKN1 (human) = PKN1 (human) (UniProt Q16512)
IRAK4 (human) = IRAK4 (human) (UniProt Q9NWZ3)
PRKACB (human) = PRKACB (human) (UniProt P22694)
[1] = system: RET (human), P07949 [V804M]
MAP3K5 (human) = MAP3K5 (human) (UniProt Q99683)
CSNK1G2 (human) = CSNK1G2 (human) (UniProt P78368)
PRKAA2 (human) = PRKAA2 (human) (UniProt P54646)
STK32C (human) = STK32C (human) (UniProt Q86UX6)
STK33 (human) = STK33 (human) (UniProt Q9BYT3)
PRKD3 (human) = PRKD3 (human) (UniProt O94806)
DYRK1A (human) = DYRK1A (human) (UniProt Q13627)
CDK9 (human) = CDK9 (human) (UniProt P50750)
CPK1 (P.falciparum) = system: CPK1 (P.falciparum)
MAPK9 (human) = MAPK9 (human) (UniProt P45984)
TYRO3 (human) = TYRO3 (human) (UniProt Q06418)
TEC (human) = TEC (human) (UniProt P42680)
EPHA6 (human) = EPHA6 (human) (UniProt Q9UF33)
CAMK2B (human) = CAMK2B (human) (UniProt Q13554)
ADCK4 (human) = ADCK4 (human) (UniProt Q96D53)
PLK1 (human) = PLK1 (human) (UniProt P53350)
NEK6 (human) = NEK6 (human) (UniProt Q9HC98)
CHUK (human) = CHUK (human) (UniProt O15111)
ACVRL1 (human) = ACVRL1 (human) (UniProt P37023)
CSNK1G3 (human) = CSNK1G3 (human) (UniProt Q9Y6M4)
[2] = system: EGFR (human), P00533 [752-759 del]
NEK7 (human) = NEK7 (human) (UniProt Q8TDX7)
MAP2K4 (human) = MAP2K4 (human) (UniProt P45985)
IRAK3 (human) = IRAK3 (human) (UniProt Q9Y616)
TGFBR2 (human) = TGFBR2 (human) (UniProt P37173)
[3] = system: KIT (human), P10721 [L576P]
HIPK2 (human) = HIPK2 (human) (UniProt Q9H2X6)
CHEK1 (human) = CHEK1 (human) (UniProt O14757)
NEK5 (human) = NEK5 (human) (UniProt Q6P3R8)
SBK1 (human) = SBK1 (human) (UniProt Q52WX2)
DCLK1 (human) = DCLK1 (human) (UniProt O15075)

Sequence of ADCK4 (human) (Q96D53 whole entry, looked up): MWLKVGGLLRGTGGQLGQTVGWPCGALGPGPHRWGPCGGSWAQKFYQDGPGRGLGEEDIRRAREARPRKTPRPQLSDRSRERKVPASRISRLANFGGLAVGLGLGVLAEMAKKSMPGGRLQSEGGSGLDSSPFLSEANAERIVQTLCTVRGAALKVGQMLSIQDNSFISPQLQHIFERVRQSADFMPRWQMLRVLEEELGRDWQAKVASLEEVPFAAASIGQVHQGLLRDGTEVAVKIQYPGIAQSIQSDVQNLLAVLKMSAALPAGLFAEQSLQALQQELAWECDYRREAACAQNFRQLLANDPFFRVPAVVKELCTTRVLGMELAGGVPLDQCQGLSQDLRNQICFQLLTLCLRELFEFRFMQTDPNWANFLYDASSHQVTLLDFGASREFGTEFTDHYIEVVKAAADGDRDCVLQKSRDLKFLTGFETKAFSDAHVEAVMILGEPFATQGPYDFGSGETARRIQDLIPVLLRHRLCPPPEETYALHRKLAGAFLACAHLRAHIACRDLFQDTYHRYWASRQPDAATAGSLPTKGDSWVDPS
Sequence of MAPK9 (human) (P45984 whole entry, looked up): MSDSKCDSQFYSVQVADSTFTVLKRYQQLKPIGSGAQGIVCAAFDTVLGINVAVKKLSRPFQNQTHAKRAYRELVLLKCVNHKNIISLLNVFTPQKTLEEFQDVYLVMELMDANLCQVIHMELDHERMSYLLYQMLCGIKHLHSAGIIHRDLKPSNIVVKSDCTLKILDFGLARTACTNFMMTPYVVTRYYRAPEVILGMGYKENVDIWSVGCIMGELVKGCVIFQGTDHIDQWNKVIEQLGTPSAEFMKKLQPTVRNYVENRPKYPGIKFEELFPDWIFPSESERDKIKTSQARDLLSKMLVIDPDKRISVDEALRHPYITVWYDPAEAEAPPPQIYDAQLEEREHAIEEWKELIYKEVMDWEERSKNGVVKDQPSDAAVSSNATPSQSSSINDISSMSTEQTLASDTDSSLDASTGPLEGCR
Sequence of CSNK1G3 (human) (Q9Y6M4 whole entry, looked up): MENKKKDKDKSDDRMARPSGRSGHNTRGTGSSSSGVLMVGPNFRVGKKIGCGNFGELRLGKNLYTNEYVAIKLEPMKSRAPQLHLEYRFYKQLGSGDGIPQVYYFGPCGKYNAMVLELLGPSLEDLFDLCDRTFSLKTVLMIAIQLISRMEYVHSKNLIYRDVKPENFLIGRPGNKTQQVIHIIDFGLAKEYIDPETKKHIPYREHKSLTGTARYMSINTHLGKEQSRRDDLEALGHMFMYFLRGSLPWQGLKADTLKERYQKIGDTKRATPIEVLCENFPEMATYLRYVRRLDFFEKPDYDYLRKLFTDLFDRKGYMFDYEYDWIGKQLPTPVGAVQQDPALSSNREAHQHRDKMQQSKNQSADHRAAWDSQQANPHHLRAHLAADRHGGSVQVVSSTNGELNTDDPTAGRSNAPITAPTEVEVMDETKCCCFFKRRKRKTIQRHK
Sequence of TGFBR2 (human) (P37173 whole entry, looked up): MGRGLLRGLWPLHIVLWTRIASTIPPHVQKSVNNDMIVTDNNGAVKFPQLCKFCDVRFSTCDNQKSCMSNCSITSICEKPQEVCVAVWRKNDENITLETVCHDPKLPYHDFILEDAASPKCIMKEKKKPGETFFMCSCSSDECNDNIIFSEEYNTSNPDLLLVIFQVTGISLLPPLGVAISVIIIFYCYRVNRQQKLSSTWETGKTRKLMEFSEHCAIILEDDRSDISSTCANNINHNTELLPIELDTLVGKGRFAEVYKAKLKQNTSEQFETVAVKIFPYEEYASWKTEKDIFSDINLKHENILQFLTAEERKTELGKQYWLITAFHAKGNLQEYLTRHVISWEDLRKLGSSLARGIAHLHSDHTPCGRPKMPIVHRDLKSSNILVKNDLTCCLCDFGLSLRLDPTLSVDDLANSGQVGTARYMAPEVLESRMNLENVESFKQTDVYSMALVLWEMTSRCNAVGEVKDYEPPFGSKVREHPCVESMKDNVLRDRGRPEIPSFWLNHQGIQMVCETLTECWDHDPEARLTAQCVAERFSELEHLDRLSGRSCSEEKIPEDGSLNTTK
Sequence of CAMK2B (human) (Q13554 whole entry, looked up): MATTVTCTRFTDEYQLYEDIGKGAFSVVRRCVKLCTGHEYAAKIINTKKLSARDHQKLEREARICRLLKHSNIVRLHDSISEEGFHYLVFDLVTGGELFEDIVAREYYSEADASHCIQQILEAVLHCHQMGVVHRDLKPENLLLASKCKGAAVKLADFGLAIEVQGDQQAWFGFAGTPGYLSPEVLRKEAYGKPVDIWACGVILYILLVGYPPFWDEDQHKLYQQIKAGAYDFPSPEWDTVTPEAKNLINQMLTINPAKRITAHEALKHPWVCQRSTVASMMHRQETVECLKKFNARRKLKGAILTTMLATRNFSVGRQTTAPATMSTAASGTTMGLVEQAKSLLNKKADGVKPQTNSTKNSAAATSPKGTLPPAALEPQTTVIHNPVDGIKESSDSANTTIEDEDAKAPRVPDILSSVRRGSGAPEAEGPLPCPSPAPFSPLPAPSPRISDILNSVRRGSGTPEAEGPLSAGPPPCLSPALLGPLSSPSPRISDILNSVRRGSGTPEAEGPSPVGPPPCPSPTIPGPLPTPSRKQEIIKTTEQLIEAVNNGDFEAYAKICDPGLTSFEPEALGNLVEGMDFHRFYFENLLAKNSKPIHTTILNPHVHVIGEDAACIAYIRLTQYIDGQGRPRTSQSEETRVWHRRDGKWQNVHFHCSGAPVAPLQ
Sequence of CSNK1G2 (human) (P78368 whole entry, looked up): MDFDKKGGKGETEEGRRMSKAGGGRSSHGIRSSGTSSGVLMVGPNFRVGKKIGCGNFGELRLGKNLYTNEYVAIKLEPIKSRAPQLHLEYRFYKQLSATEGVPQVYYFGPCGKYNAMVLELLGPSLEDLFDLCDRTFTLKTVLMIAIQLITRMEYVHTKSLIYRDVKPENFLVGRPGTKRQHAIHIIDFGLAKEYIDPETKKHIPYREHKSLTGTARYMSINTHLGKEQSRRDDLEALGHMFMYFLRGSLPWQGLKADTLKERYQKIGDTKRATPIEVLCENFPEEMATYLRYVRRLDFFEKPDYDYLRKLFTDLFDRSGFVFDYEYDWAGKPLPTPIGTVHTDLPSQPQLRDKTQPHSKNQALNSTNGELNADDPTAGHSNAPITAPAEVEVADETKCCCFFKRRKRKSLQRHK
Sequence of STK32C (human) (Q86UX6 whole entry, looked up): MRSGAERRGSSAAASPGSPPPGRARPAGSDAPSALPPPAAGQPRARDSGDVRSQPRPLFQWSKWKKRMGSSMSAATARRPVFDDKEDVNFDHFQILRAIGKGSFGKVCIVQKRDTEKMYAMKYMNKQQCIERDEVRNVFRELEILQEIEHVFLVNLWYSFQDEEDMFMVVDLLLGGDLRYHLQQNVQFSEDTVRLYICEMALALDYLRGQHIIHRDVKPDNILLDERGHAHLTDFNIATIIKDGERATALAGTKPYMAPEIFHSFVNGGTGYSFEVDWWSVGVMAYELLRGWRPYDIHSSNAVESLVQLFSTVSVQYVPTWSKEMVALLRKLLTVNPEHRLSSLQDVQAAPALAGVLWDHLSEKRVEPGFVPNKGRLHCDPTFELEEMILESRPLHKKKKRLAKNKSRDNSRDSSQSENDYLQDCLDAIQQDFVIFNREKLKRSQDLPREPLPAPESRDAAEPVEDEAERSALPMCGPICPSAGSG
Sequence of NEK5 (human) (Q6P3R8 whole entry, looked up): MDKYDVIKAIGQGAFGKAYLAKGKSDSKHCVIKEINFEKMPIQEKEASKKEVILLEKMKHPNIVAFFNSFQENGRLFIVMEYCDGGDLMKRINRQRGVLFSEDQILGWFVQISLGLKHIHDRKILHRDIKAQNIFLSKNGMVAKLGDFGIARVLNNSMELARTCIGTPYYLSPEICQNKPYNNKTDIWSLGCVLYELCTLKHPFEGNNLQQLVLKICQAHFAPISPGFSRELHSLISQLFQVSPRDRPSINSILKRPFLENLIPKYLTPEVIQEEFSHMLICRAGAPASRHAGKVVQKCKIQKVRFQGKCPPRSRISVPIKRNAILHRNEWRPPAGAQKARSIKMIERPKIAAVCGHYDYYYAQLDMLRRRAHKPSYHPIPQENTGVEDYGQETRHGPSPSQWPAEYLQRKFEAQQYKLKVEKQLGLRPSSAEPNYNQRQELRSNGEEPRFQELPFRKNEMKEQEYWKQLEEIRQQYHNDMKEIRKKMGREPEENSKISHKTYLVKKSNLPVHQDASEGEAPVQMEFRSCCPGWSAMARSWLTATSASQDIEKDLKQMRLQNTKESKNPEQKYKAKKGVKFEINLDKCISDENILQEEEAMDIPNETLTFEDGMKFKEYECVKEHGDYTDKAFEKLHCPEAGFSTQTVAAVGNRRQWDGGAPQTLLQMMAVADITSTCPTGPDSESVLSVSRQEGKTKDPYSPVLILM
Sequence of IRAK3 (human) (Q9Y616 whole entry, looked up): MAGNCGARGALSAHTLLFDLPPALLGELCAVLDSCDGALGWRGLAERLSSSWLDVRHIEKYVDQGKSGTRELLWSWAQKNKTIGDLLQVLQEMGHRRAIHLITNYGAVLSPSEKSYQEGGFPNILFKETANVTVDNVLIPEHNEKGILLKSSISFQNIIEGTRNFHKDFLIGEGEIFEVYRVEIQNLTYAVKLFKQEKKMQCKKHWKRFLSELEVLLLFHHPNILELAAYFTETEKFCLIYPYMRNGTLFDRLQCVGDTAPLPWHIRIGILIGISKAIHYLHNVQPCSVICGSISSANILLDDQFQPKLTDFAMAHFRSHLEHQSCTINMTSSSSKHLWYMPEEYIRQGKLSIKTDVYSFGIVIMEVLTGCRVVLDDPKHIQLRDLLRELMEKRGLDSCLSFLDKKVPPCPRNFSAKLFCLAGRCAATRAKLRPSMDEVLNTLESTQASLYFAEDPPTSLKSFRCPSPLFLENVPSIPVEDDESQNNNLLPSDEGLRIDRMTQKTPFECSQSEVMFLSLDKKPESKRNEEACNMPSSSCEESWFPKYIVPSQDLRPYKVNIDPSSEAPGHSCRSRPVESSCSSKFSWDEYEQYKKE

| SMILES | kinase still bound, per cent of control (MAP3K2 (human)) | kinase still bound, per cent of control (PRKCH (human)) | kinase still bound, per cent of control (MAPK15 (human)) | kinase still bound, per cent of control (OXSR1 (human)) | kinase still bound, per cent of control (PKN1 (human)) | kinase still bound, per cent of control (IRAK4 (human)) | kinase still bound, per cent of control (PRKACB (human)) | kinase still bound, per cent of control [1] | kinase still bound, per cent of control (MAP3K5 (human)) | kinase still bound, per cent of control (CSNK1G2 (human)) | kinase still bound, per cent of control (PRKAA2 (human)) | kinase still bound, per cent of control (STK32C (human)) | kinase still bound, per cent of control (STK33 (human)) | kinase still bound, per cent of control (PRKD3 (human)) | kinase still bound, per cent of control (DYRK1A (human)) | kinase still bound, per cent of control (CDK9 (human)) | kinase still bound, per cent of control (CPK1 (P.falciparum)) | kinase still bound, per cent of control (MAPK9 (human)) | kinase still bound, per cent of control (TYRO3 (human)) | kinase still bound, per cent of control (TEC (human)) | other results |
| --- | --- | --- | --- | --- | --- | --- | --- | --- | --- | --- | --- | --- | --- | --- | --- | --- | --- | --- | --- | --- | --- |
| C=CC(=O)Nc1cc(-n2c(=O)ccc3cnc4ccc(-c5cn[nH]c5)cc4c32)ccc1C | 88% | 100% | 24% | 79% | 100% | 36% | 100% | 68% | 100% | 94% | 78% | 100% | 100% | 98% | 0.1% | 100% | 11% | 9.6% | 100% | 6% | kinase still bound, per cent of control (EPHA6 (human)): 94%; kinase still bound, per cent of control (CAMK2B (human)): 44%; kinase still bound, per cent of control (ADCK4 (human)): 86%; kinase still bound, per cent of control (PLK1 (human)): 80%; kinase still bound, per cent of control (NEK6 (human)): 92%; kinase still bound, per cent of control (CHUK (human)): 100%; kinase still bound, per cent of control (ACVRL1 (human)): 42%; kinase still bound, per cent of control (CSNK1G3 (human)): 84%; kinase still bound, per cent of control [2]: 23%; kinase still bound, per cent of control (NEK7 (human)): 100%; kinase still bound, per cent of control (MAP2K4 (human)): 14%; kinase still bound, per cent of control (IRAK3 (human)): 0.7%; kinase still bound, per cent of control (TGFBR2 (human)): 82%; kinase still bound, per cent of control [3]: 68%; kinase still bound, per cent of control (HIPK2 (human)): 48%; kinase still bound, per cent of control (CHEK1 (human)): 100%; kinase still bound, per cent of control (NEK5 (human)): 100%; kinase still bound, per cent of control (SBK1 (human)): 90%; kinase still bound, per cent of control (DCLK1 (human)): 94% |
| CNC(=O)c1cc(Oc2ccc(NC(=O)Nc3ccc(Cl)c(C(F)(F)F)c3)cc2)ccn1 | 100% | 100% | 0.85% | 100% | 99% | 95% | 100% | 0% | 90% | 94% | 74% | 100% | 33% | 67% | 100% | 81% | 0.95% | 19% | 80% | 100% | kinase still bound, per cent of control (EPHA6 (human)): 9.2%; kinase still bound, per cent of control (CAMK2B (human)): 84%; kinase still bound, per cent of control (ADCK4 (human)): 100%; kinase still bound, per cent of control (PLK1 (human)): 100%; kinase still bound, per cent of control (NEK6 (human)): 100%; kinase still bound, per cent of control (CHUK (human)): 81%; kinase still bound, per cent of control (ACVRL1 (human)): 77%; kinase still bound, per cent of control (CSNK1G3 (human)): 91%; kinase still bound, per cent of control (NEK7 (human)): 100%; kinase still bound, per cent of control (MAP2K4 (human)): 100%; kinase still bound, per cent of control (IRAK3 (human)): 81%; kinase still bound, per cent of control (TGFBR2 (human)): 35%; kinase still bound, per cent of control [3]: 0%; kinase still bound, per cent of control (CHEK1 (human)): 91%; kinase still bound, per cent of control (NEK5 (human)): 90%; kinase still bound, per cent of control (SBK1 (human)): 89%; kinase still bound, per cent of control (DCLK1 (human)): 98% |
| NC(=O)Nc1cc(-c2cccc(F)c2)sc1C(=O)N[C@@H]1CCCNC1 | 0% | 1.4% | 19% | 0.45% | 0% | 0% | 1.8% | 0% | 40% | 0.95% | 0.35% | 53% | 0% | 2.2% | 0% | 88% | 0.1% | 38% | 3.2% | 0.4% | kinase still bound, per cent of control (EPHA6 (human)): 8.2%; kinase still bound, per cent of control (CAMK2B (human)): 19%; kinase still bound, per cent of control (ADCK4 (human)): 55%; kinase still bound, per cent of control (PLK1 (human)): 33%; kinase still bound, per cent of control (NEK6 (human)): 89%; kinase still bound, per cent of control (CHUK (human)): 0%; kinase still bound, per cent of control (ACVRL1 (human)): 76%; kinase still bound, per cent of control (CSNK1G3 (human)): 4.6%; kinase still bound, per cent of control [2]: 2.4%; kinase still bound, per cent of control (NEK7 (human)): 72%; kinase still bound, per cent of control (MAP2K4 (human)): 2.2%; kinase still bound, per cent of control (IRAK3 (human)): 6.4%; kinase still bound, per cent of control (TGFBR2 (human)): 2.4%; kinase still bound, per cent of control (HIPK2 (human)): 13%; kinase still bound, per cent of control (CHEK1 (human)): 0.25%; kinase still bound, per cent of control (NEK5 (human)): 90%; kinase still bound, per cent of control (SBK1 (human)): 0%; kinase still bound, per cent of control (DCLK1 (human)): 2.4% |
